Assays:
MDA-MB-435 = assay: cells; conditions: Homo sapiens, MDA-MB-435, 120 h
Description: Cytotoxicity against human MDA-MB-435 cells expressing p53 mutant assessed as cell viability after 5 days by MTT assay

SW480 = assay: cells; conditions: Homo sapiens, SW480, 120 h
Description: Cytotoxicity against human SW480 cells expressing p53 mutant assessed as cell viability after 5 days by MTT assay

SJSA-1 [1] = assay: cells; conditions: Homo sapiens, SJSA-1, 120 h
Description: Cytotoxicity against human SJSA1 cells expressing wild type p53 assessed as cell viability after 5 days by MTT assay

RKO = assay: cells; conditions: Homo sapiens, 120 h
Description: Cytotoxicity against human RKO cells expressing wild type p53 assessed as cell viability after 5 days by MTT assay

HCT-116 = assay: cells; conditions: Homo sapiens, HCT-116, 120 h
Description: Cytotoxicity against human HCT116 cells expressing wild type p53 assessed as cell viability after 5 days by MTT assay

[2] = AUClast in mouse at 50 mg/kg, po; assay type: ADME, organism-based; parameters: time 0 - last, dose 50 mg/kg, route oral; conditions: plasma
[3] = Cmax in mouse at 50 mg/kg, po; assay type: ADME, organism-based; parameters: dose 50 mg/kg, route oral; conditions: in vivo
[4] = Apparent half life in mouse at 50 mg/kg, po; assay type: ADME, organism-based; parameters: dose 50 mg/kg, route oral; conditions: in vivo, read-out: t1/2(app) (converted)
[5] = Cmax in mouse at 100 mg/kg, po; assay type: ADME, organism-based; parameters: dose 100 mg/kg, route oral; conditions: in vivo
[6] = Apparent half life in mouse at 100 mg/kg, po; assay type: ADME, organism-based; parameters: dose 100 mg/kg, route oral; conditions: in vivo, read-out: t1/2(app) (converted)
[7] = AUClast in mouse at 100 mg/kg, po; assay type: ADME, organism-based; parameters: time 0 - last, dose 100 mg/kg, route oral; conditions: plasma
SJSA-1 [8] = assay: animal or person; conditions: Mus musculus, SJSA-1, po, read-out: TGI
Description: Antitumor activity against human SJSA1 cells xenografted in nude mouse assessed as tumor growth inhibition at 50 mg/kg, po relative to control

[9] = Antitumor activity against human MHM cells xenografted in po dosed mouse relative to nutlin-3a; assay type: functional

## CCOc1cc(C(C)(C)C)ccc1C1=N[C@@](C)(c2ccc(Cl)cc2)[C@@H](c2ccc(Cl)cc2)N1C(=O)N1CCN(CCCS(C)(=O)=O)CC1
MDA-MB-435
  IC50: > 30 µM
SW480
  IC50: > 30 µM
SJSA-1 [1]
  IC50: 12.4 µM
RKO
  IC50: > 30 µM
HCT-116
  IC50: 14.4 µM

## CCOc1cc(C(C)(C)C)ccc1C1=N[C@@](C)(c2ccc(Cl)cc2)[C@@](C)(c2ccc(Cl)cc2)N1C(=O)N1CCNC(=O)C1
MDA-MB-435
  IC50: > 30 µM
SW480
  IC50: > 30 µM
SJSA-1 [1]
  IC50: 7.6 µM
RKO
  IC50: 23.7 µM
HCT-116
  IC50: 16.4 µM

## CCOc1cc(C(C)(C)C)ccc1C1=N[C@@](C)(c2ccc(Cl)cc2)[C@@](C)(c2ccc(Cl)cc2)N1C(=O)N1CCNCC1
MDA-MB-435
  IC50: 4.2 µM
SW480
  IC50: 2.7 µM
SJSA-1 [1]
  IC50: 0.6 µM
RKO
  IC50: 0.5 µM
HCT-116
  IC50: 1.2 µM

## CCOc1cc(C(C)(C)C)ccc1C1=N[C@@](C)(c2ccc(Cl)cc2)[C@@](C)(c2ccc(Cl)cc2)N1C(=O)N1CCCCC1
MDA-MB-435
  IC50: 24.9 µM
SW480
  IC50: 23.1 µM
SJSA-1 [1]
  IC50: 7.3 µM
RKO
  IC50: 6.8 µM
HCT-116
  IC50: 10.7 µM

## CCOc1cc(C(C)(C)C)ccc1C1=N[C@@](C)(c2ccc(Cl)cc2)[C@@](C)(c2ccc(Cl)cc2)N1C(=O)N1CCN(C(C)=O)CC1
[2]
  AUC(0-t): 64900 ng·h/mL
MDA-MB-435
  IC50: 14.9 µM
SW480
  IC50: 17.8 µM
[3]
  Cmax: 19600 ng/mL
SJSA-1 [1]
  IC50: 0.3 µM
RKO
  IC50: 0.5 µM
[4]
  half-life: 2.4 h
HCT-116
  IC50: 0.6 µM

## CCOc1cc(C(C)(C)C)ccc1C1=N[C@@](C)(c2ccc(Cl)cc2)[C@@](C)(c2ccc(Cl)cc2)N1C(=O)N1CCN(CCC(F)(F)F)CC1
MDA-MB-435
  IC50: 29.3 µM
SW480
  IC50: 5 µM
SJSA-1 [1]
  IC50: 2.5 µM
RKO
  IC50: 0.4 µM
HCT-116
  IC50: 1.3 µM

## CCOc1cc(C(C)(C)C)ccc1C1=N[C@@](C)(c2ccc(Cl)cc2)[C@@](C)(c2ccc(Cl)cc2)N1C(=O)N1CCN(CCO)CC1
MDA-MB-435
  IC50: 9.6 µM
SW480
  IC50: 12.3 µM
SJSA-1 [1]
  IC50: 0.2 µM
RKO
  IC50: 0.3 µM
HCT-116
  IC50: 0.8 µM

## CCOc1cc(C(C)(C)C)ccc1C1=N[C@@](C)(c2ccc(Cl)cc2)[C@@](C)(c2ccc(Cl)cc2)N1C(=O)N1CCN(CCNS(C)(=O)=O)CC1
MDA-MB-435
  IC50: 7.3 µM
SW480
  IC50: 9.1 µM
SJSA-1 [1]
  IC50: 0.2 µM
RKO
  IC50: 0.3 µM
HCT-116
  IC50: 0.9 µM

## CCOc1cc(C(C)(C)C)ccc1C1=N[C@@](C)(c2ccc(Cl)cc2)[C@@](C)(c2ccc(Cl)cc2)N1C(=O)N1CCN(CCNC(C)=O)CC1
[2]
  AUC(0-t): 136000 ng·h/mL
MDA-MB-435
  IC50: 10.5 µM
SW480
  IC50: 11 µM
[3]
  Cmax: 12000 ng/mL
SJSA-1 [1]
  IC50: 0.1 µM
RKO
  IC50: 0.3 µM
[4]
  half-life: 2.3 h
HCT-116
  IC50: 0.5 µM

## CCOc1cc(C(C)(C)C)ccc1C1=N[C@@](C)(c2ccc(Cl)cc2)[C@@](C)(c2ccc(Cl)cc2)N1C(=O)N1CCN(CC(=O)N2CCCC2)CC1
[2]
  AUC(0-t): 8300 ng·h/mL
MDA-MB-435
  IC50: 9.5 µM
SW480
  IC50: 14.4 µM
[3]
  Cmax: 2300 ng/mL
SJSA-1 [1]
  IC50: 0.3 µM
RKO
  IC50: 0.5 µM
[4]
  half-life: 4.7 h
HCT-116
  IC50: 0.7 µM

## CCOc1cc(C(C)(C)C)ccc1C1=N[C@@](C)(c2ccc(Cl)cc2)[C@@](C)(c2ccc(Cl)cc2)N1C(=O)N1CCN(CC(=O)N2CCOCC2)CC1
MDA-MB-435
  IC50: 17.5 µM
SW480
  IC50: 14.4 µM
SJSA-1 [1]
  IC50: 0.2 µM
RKO
  IC50: 0.6 µM
HCT-116
  IC50: 0.6 µM

## CCOc1cc(C(C)(C)C)ccc1C1=N[C@@](CC)(c2ccc(Cl)cc2)[C@@](CC)(c2ccc(Cl)cc2)N1C(=O)N1CCN(CCCS(C)(=O)=O)CC1
MDA-MB-435
  IC50: 28.2 µM
SW480
  IC50: 24.6 µM
SJSA-1 [1]
  IC50: > 30 µM
RKO
  IC50: 12.5 µM
HCT-116
  IC50: 13.7 µM

## COc1ccc(C2=N[C@@H](c3ccc(Cl)cc3)[C@@H](c3ccc(Cl)cc3)N2C(=O)N2CCNC(=O)C2)c(OC(C)C)c1 [NUTLIN-3]
[5]
  Cmax: 12100 ng/mL
[6]
  half-life: 2.6 h
SJSA-1 [1]
  IC50: 1.5 µM
RKO
  IC50: 1.5 µM
[7]
  AUC(0-t): 65000 ng·h/mL
HCT-116
  IC50: 1.5 µM

## CCOc1cc(C(C)(C)C)ccc1C1=N[C@@](C)(c2ccc(Cl)cc2)[C@@](C)(c2ccc(Cl)cc2)N1C(=O)N1CCN(CCCS(C)(=O)=O)CC1 [RO-5045337]
[2]
  AUC(0-t): 251000 ng·h/mL
MDA-MB-435
  IC50: 9.9 µM
SW480
  IC50: 16.6 µM
[3]
  Cmax: 15500 ng/mL
SJSA-1 [1]
  IC50: 0.3 µM
RKO
  IC50: 0.4 µM
SJSA-1 [8]
  inhibition in vivo at 50 mg/kg: 74%
[9]
  fold change (FC): 4
[4]
  half-life: 8.8 h
HCT-116
  IC50: 0.5 µM

From ChEMBL document CHEMBL2384945, “Discovery of RG7112: A Small-Molecule MDM2 Inhibitor in Clinical Development” (ACS Med Chem Lett, 2013)
